In PubChem BioAssay (NCI):
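Where inhibition never reached the appropriate level, the endpoint shown equals the highest concentration tested. Otherwise, values were interpolated linearly from a five-concentration, 48-hour dose response in 96-well plates. Definition used: TGI = concentration required for complete inhibition of growth.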

Assays:
Assay in all cases: NCI anticancer screen, dose series, 48 h
[1] = tested on: OVCAR-4 ovarian
[2] = tested on: HT29 colon
[3] = tested on: COLO 205 colon
[4] = tested on: LXFL 529 NSCLC
[5] = tested on: M14 melanoma
[6] = tested on: HCT-15 colon
[7] = tested on: EKVX NSCLC
[8] = tested on: M19-MEL melanoma
[9] = tested on: U251 CNS
[10] = tested on: CAKI-1 renal
[11] = tested on: KM12 colon
[12] = tested on: SNB-78 CNS
[13] = tested on: DMS 114 small cell lung
[14] = tested on: HOP-62 NSCLC
[15] = tested on: KM20L2 colon
[16] = tested on: DLD-1 colon
[17] = tested on: A498 renal
[18] = tested on: SNB-19 CNS
[19] = tested on: SF-295 CNS
[20] = tested on: SK-OV-3 ovarian
[21] = tested on: OVCAR-8 ovarian
[22] = tested on: XF 498 CNS
[23] = tested on: NCI-H23 lung
[24] = tested on: SN12C renal
[25] = tested on: ACHN renal
[26] = tested on: SK-MEL-28 melanoma
[27] = tested on: LOX IMVI melanoma
[28] = tested on: HCT-116 colon
[29] = tested on: TK-10 renal
[30] = tested on: OVCAR-3 ovarian
[31] = tested on: MALME-3M melanoma
[32] = tested on: RXF 393 renal
[33] = tested on: UACC-62 melanoma
[34] = tested on: NCI-H460 lung
[35] = tested on: DMS 273 small cell lung
[36] = tested on: CCRF-CEM leukemia
[37] = tested on: UACC-257 melanoma
[38] = tested on: NCI-H226 lung
[39] = tested on: HL-60(TB) leukemia
[40] = tested on: SK-MEL-5 melanoma
[41] = tested on: NCI-H522 lung
[42] = tested on: RPMI-8226 leukemia
[43] = tested on: A549 NSCLC
[44] = tested on: SF-539 CNS
[45] = tested on: SNB-75 CNS
[46] = tested on: MOLT-4 leukemia
[47] = tested on: HCC-2998 colon
[48] = tested on: 786-0 renal
[49] = tested on: SF-268 CNS
[50] = tested on: OVCAR-5 ovarian
[51] = tested on: UO-31 renal
[52] = tested on: K-562 leukemia
[53] = tested on: SR leukemia
[54] = tested on: SW-620 colon
[55] = tested on: SK-MEL-2 melanoma
[56] = tested on: IGROV1 ovarian
[57] = tested on: HOP-18 NSCLC

Question: Which TGI [1] does the source give for C1OCC2S[C@@H]3COCO[C@@H]3C2O1 (some centres not stated) here?
Answer: > 100 µM

Question: And the TGI [2]?
Answer: > 100 µM

Question: What about the TGI [3] of the same compound?
Answer: > 100 µM

Question: And the TGI [4]?
Answer: > 100 µM

Question: And the TGI [5]?
Answer: > 100 µM

Question: And the TGI [6]?
Answer: > 100 µM

Question: And the TGI [7]?
Answer: > 100 µM

Question: What about the TGI [8] of the same compound?
Answer: > 100 µM

Question: What about the TGI [9] of the same compound?
Answer: > 100 µM

Question: What about the TGI [10] of the same compound?
Answer: > 100 µM

Question: And the TGI [11]?
Answer: > 100 µM

Question: What about the TGI [12] of the same compound?
Answer: > 100 µM

Question: What about the TGI [13] of the same compound?
Answer: > 100 µM

Question: What about the TGI [14] of the same compound?
Answer: > 100 µM

Question: And the TGI [15]?
Answer: > 100 µM

Question: And the TGI [16]?
Answer: > 100 µM

Question: And the TGI [17]?
Answer: > 100 µM

Question: And the TGI [18]?
Answer: > 100 µM

Question: And the TGI [19]?
Answer: > 100 µM

Question: What about the TGI [20] of the same compound?
Answer: > 100 µM

Question: And the TGI [21]?
Answer: > 100 µM

Question: What about the TGI [22] of the same compound?
Answer: > 100 µM

Question: And the TGI [23]?
Answer: > 100 µM

Question: What about the TGI [24] of the same compound?
Answer: > 100 µM

Question: And the TGI [25]?
Answer: > 100 µM

Question: And the TGI [26]?
Answer: > 100 µM

Question: What about the TGI [27] of the same compound?
Answer: > 100 µM

Question: And the TGI [28]?
Answer: > 100 µM

Question: And the TGI [29]?
Answer: > 100 µM

Question: What about the TGI [30] of the same compound?
Answer: > 100 µM

Question: And the TGI [31]?
Answer: > 100 µM

Question: What about the TGI [32] of the same compound?
Answer: > 100 µM

Question: What about the TGI [33] of the same compound?
Answer: > 100 µM

Question: And the TGI [34]?
Answer: > 100 µM

Question: And the TGI [35]?
Answer: > 100 µM

Question: And the TGI [36]?
Answer: > 100 µM

Question: What about the TGI [37] of the same compound?
Answer: > 100 µM

Question: And the TGI [38]?
Answer: > 100 µM

Question: What about the TGI [39] of the same compound?
Answer: > 100 µM

Question: What about the TGI [40] of the same compound?
Answer: > 100 µM

Question: And the TGI [41]?
Answer: > 100 µM

Question: And the TGI [42]?
Answer: > 100 µM

Question: And the TGI [43]?
Answer: > 100 µM

Question: What about the TGI [44] of the same compound?
Answer: > 100 µM

Question: What about the TGI [45] of the same compound?
Answer: > 100 µM

Question: What about the TGI [46] of the same compound?
Answer: > 100 µM

Question: And the TGI [47]?
Answer: > 100 µM

Question: What about the TGI [48] of the same compound?
Answer: > 100 µM

Question: What about the TGI [49] of the same compound?
Answer: > 100 µM

Question: What about the TGI [50] of the same compound?
Answer: > 100 µM

Question: And the TGI [51]?
Answer: > 100 µM

Question: And the TGI [52]?
Answer: > 100 µM

Question: And the TGI [53]?
Answer: > 100 µM

Question: With C1=C(c2ccccc2)CN(c2ccccc2)OC1 as the compound, how does the TGI [2] read?
Answer: > 100 µM

Question: And the TGI [3]?
Answer: > 100 µM

Question: What about the TGI [4] of the same compound?
Answer: > 100 µM

Question: And the TGI [5]?
Answer: > 100 µM

Question: What about the TGI [6] of the same compound?
Answer: > 100 µM

Question: What about the TGI [7] of the same compound?
Answer: > 100 µM

Question: And the TGI [8]?
Answer: > 100 µM

Question: And the TGI [54]?
Answer: > 100 µM

Question: What about the TGI [9] of the same compound?
Answer: > 100 µM

Question: And the TGI [10]?
Answer: > 100 µM

Question: What about the TGI [11] of the same compound?
Answer: > 100 µM

Question: What about the TGI [12] of the same compound?
Answer: > 100 µM

Question: And the TGI [14]?
Answer: > 100 µM

Question: And the TGI [15]?
Answer: > 100 µM

Question: What about the TGI [16] of the same compound?
Answer: > 100 µM

Question: What about the TGI [18] of the same compound?
Answer: > 100 µM

Question: What about the TGI [20] of the same compound?
Answer: > 100 µM

Question: And the TGI [22]?
Answer: > 100 µM

Question: What about the TGI [23] of the same compound?
Answer: > 100 µM

Question: And the TGI [24]?
Answer: > 100 µM

Question: And the TGI [25]?
Answer: > 100 µM

Question: And the TGI [26]?
Answer: > 100 µM

Question: And the TGI [27]?
Answer: > 100 µM

Question: What about the TGI [29] of the same compound?
Answer: > 100 µM

Question: And the TGI [30]?
Answer: > 100 µM

Question: And the TGI [31]?
Answer: > 100 µM

Question: What about the TGI [32] of the same compound?
Answer: > 100 µM

Question: And the TGI [33]?
Answer: > 100 µM

Question: And the TGI [34]?
Answer: > 100 µM

Question: And the TGI [35]?
Answer: > 100 µM

Question: And the TGI [36]?
Answer: > 100 µM

Question: And the TGI [38]?
Answer: > 100 µM

Question: And the TGI [39]?
Answer: > 100 µM

Question: And the TGI [41]?
Answer: > 100 µM

Question: What about the TGI [42] of the same compound?
Answer: > 100 µM

Question: What about the TGI [43] of the same compound?
Answer: > 100 µM

Question: And the TGI [44]?
Answer: > 100 µM

Question: What about the TGI [45] of the same compound?
Answer: > 100 µM

Question: What about the TGI [55] of the same compound?
Answer: > 100 µM

Question: And the TGI [46]?
Answer: > 100 µM

Question: And the TGI [47]?
Answer: > 100 µM

Question: And the TGI [48]?
Answer: > 100 µM

Question: What about the TGI [56] of the same compound?
Answer: > 100 µM

Question: And the TGI [49]?
Answer: > 100 µM

Question: And the TGI [50]?
Answer: > 100 µM

Question: What about the TGI [51] of the same compound?
Answer: > 100 µM

Question: And the TGI [57]?
Answer: 69.3 µM

Question: And the TGI [52]?
Answer: > 100 µM

Question: What about the TGI [53] of the same compound?
Answer: > 100 µM
